71 compounds from patent publication US20050009840A1 (SUGEN, INC., priority 2003, published 2005) can be followed below.

The structures appear in SMILES notation.

By inhibition is commonly meant the share of the control response that was lost under treatment.

T1 sequence (P08581 974-1390 limits assumed): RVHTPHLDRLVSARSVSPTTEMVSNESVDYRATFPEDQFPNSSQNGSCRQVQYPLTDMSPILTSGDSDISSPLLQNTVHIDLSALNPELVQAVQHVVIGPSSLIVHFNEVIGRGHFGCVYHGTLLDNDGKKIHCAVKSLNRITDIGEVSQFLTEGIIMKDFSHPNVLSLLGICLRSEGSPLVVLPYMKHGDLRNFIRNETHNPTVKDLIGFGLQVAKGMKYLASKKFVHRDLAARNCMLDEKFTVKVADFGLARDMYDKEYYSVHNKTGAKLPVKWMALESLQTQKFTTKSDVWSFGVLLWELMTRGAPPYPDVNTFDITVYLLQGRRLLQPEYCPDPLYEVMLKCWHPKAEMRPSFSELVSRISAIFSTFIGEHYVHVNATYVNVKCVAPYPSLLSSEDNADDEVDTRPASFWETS

The test addresses T1, HGFR (Homo sapiens, UniProt P08581).
T1 construct: purchased Upstate 14-526
Nature of the test: HGFR continuous-coupled spectrophotometric assay. It counts as biochemical. The following applies: at 1 pM; Table 6, library procedure 41; read-out: % Inhibition (percent c-MET inhibition).
Consider `Nc1ncc(C(=O)N2CCCC(O)C2)cc1OCc1c(Cl)cccc1Cl` [Example L-236], for which the inhibition at 1 pM worked out at 33%. As for `CN(CC#N)C(=O)c1cnc(N)c(OCc2c(Cl)cccc2Cl)c1` [Example L-237], the inhibition at 1 pM worked out at 30%. In the case of `CC(O)CCNC(=O)c1cnc(N)c(OCc2c(Cl)cccc2Cl)c1` [Example L-238] it was 35%; in that of `Nc1ncc(C(=O)NCCO)cc1OCc1c(Cl)cccc1Cl` [Example L-239], 34%. On to `Nc1ncc(C(=O)NCCc2ccncc2)cc1OCc1c(Cl)cccc1Cl` [Example L-240], for which the inhibition at 1 pM came to 30%. In the case of `CCCC(CO)NC(=O)c1cnc(N)c(OCc2c(Cl)cccc2Cl)c1` [Example L-241] it was 30%. For the compound `Nc1ncc(C(=O)NCCOc2ccccc2)cc1OCc1c(Cl)cccc1Cl` [Example L-242], the inhibition at 1 pM turned out to be 66%. As to `C[C@@H]1CN(C(=O)c2cnc(N)c(OCc3c(Cl)cccc3Cl)c2)C[C@H](C)O1` [Example L-243], the inhibition at 1 pM turned out to be 32%. For `CN(C)C1CCN(C(=O)c2cnc(N)c(OCc3c(Cl)cccc3Cl)c2)C1` [Example L-244], the inhibition at 1 pM came out at 33%.

Consider `Nc1ncc(C(=O)NCc2ccc(F)cc2F)cc1OCc1c(Cl)cccc1Cl` [Example L-245], for which the inhibition at 1 pM worked out at 33%. As to `CN(CCC(O)c1ccccc1)C(=O)c1cnc(N)c(OCc2c(Cl)cccc2Cl)c1` [Example L-246], the inhibition at 1 pM stood at 28%.

For `COc1cc(CCNC(=O)c2cnc(N)c(OCc3c(Cl)cccc3Cl)c2)cc(OC)c1O` [Example L-247], the inhibition at 1 pM stood at 25%. On to `COCCN1CCN(C(=O)c2cnc(N)c(OCc3c(Cl)cccc3Cl)c2)CC1` [Example L-248], for which the inhibition at 1 pM was determined as 27%. `Nc1ncc(C(=O)NCc2cccc(OC(F)F)c2)cc1OCc1c(Cl)cccc1Cl` [Example L-249]: the inhibition at 1 pM stood at 32%. Regarding `Nc1ncc(C(=O)NCc2ccc(F)cc2Cl)cc1OCc1c(Cl)cccc1Cl` [Example L-250], the inhibition at 1 pM worked out at 37%. The figure for `Nc1ncc(C(=O)NCC(O)c2ccc(O)cc2)cc1OCc1c(Cl)cccc1Cl` [Example L-251] is 29%; for `Nc1ncc(C(=O)N2CCC(C(=O)c3ccccc3)CC2)cc1OCc1c(Cl)cccc1Cl` [Example L-252] it is 32%; for `NC(=O)CCNC(=O)c1cnc(N)c(OCc2c(Cl)cccc2Cl)c1` [Example L-253] it is 28%. On to `CC(CN(C)C)NC(=O)c1cnc(N)c(OCc2c(Cl)cccc2Cl)c1` [Example L-254], for which the inhibition at 1 pM was 45%.

Consider `CCCOCCNC(=O)c1cnc(N)c(OCc2c(Cl)cccc2Cl)c1` [Example L-255], for which the inhibition at 1 pM came to 45%. With `CC(C)OCCNC(=O)c1cnc(N)c(OCc2c(Cl)cccc2Cl)c1` [Example L-256], the inhibition at 1 pM turned out to be 46%. Take `Nc1ncc(C(=O)N2CCC(CO)CC2)cc1OCc1c(Cl)cccc1Cl` [Example L-257]: the inhibition at 1 pM was determined as 43%.

With `Nc1ncc(C(=O)N2CCC(CCO)CC2)cc1OCc1c(Cl)cccc1Cl` [Example L-258], the inhibition at 1 pM turned out to be 45%. For the compound `CN(CC(N)=O)C(=O)c1cnc(N)c(OCc2c(Cl)cccc2Cl)c1` [Example L-259], the inhibition at 1 pM is 39%. For `CC1CCC(=O)C(NC(=O)c2cnc(N)c(OCc3c(Cl)cccc3Cl)c2)C1` [Example L-260], the inhibition at 1 pM was found to be 40%. On to `Nc1ncc(C(=O)N2CCN(CCCN3CCOCC3)CC2)cc1OCc1c(Cl)cccc1Cl` [Example L-261], for which the inhibition at 1 pM came out at 40%. As to `CN(C)C(=O)CN1CCN(C(=O)c2cnc(N)c(OCc3c(Cl)cccc3Cl)c2)CC1` [Example L-262], the inhibition at 1 pM worked out at 42%. `Nc1ncc(C(=O)NCCN2CCN(Cc3ccccc3)CC2)cc1OCc1c(Cl)cccc1Cl` [Example L-263]: the inhibition at 1 pM is 36%. As to `Nc1ncc(C(=O)NC[C@H]2CC[C@H](c3nc4ccccc4[nH]3)CC2)cc1OCc1c(Cl)cccc1Cl` [Example L-264], the inhibition at 1 pM came out at 38%.

With `Nc1ncc(C(=O)NCc2ccc(C(F)(F)F)nc2)cc1OCc1c(Cl)cccc1Cl` [Example L-265], the inhibition at 1 pM was 17%.

Turning to `CN(C)C(=O)c1cnc(N)c(OCc2c(Cl)cccc2Cl)c1` [Example L-266], the inhibition at 1 pM came out at 10%. Turning to `Nc1ncc(C(=O)N2CCN(c3ccc(Br)cn3)CC2)cc1OCc1c(Cl)cccc1Cl` [Example L-267], the inhibition at 1 pM turned out to be 5%. The figure for `Cc1ccc(N2CCN(CCCCNC(=O)c3cnc(N)c(OCc4c(Cl)cccc4Cl)c3)CC2)cc1` [Example L-268] is 15%; for `Nc1ncc(C(=O)N2CCS(=O)(=O)CC2)cc1OCc1c(Cl)cccc1Cl` [Example L-269] it is 10%. For `C[C@@H]1CCC[C@H](C)N1CCNC(=O)c1cnc(N)c(OCc2c(Cl)cccc2Cl)c1` [Example L-270], the inhibition at 1 pM amounted to 2%. As for `Nc1ncc(C(=O)N[C@@H]2CCC[C@H]2OCc2ccccc2)cc1OCc1c(Cl)cccc1Cl` [Example L-271], the inhibition at 1 pM stood at 16%.

On to `Nc1ncc(C(=O)NC[C@]2(O)CC[C@H](c3ccccc3)CC2)cc1OCc1c(Cl)cccc1Cl` [Example L-272], for which the inhibition at 1 pM stood at 15%. In the case of `Nc1ncc(C(=O)NCCc2cccc(O)c2)cc1OCc1c(Cl)cccc1Cl` [Example L-273] it was 17%. Turning to `N#CCCN1CCN(C(=O)c2cnc(N)c(OCc3c(Cl)cccc3Cl)c2)CC1` [Example L-274], the inhibition at 1 pM is 19%. Take `Nc1ncc(C(=O)NCc2cc3cc[nH]c3cn2)cc1OCc1c(Cl)cccc1Cl` [Example L-275]: the inhibition at 1 pM was determined as 28%. Take `Nc1ncc(C(=O)NCC(O)CN2CCC(Cc3ccccc3)CC2)cc1OCc1c(Cl)cccc1Cl` [Example L-276]: the inhibition at 1 pM came to 32%. Consider `Nc1ncc(C(=O)N2CCCN(Cc3ccc(F)cc3)CC2)cc1OCc1c(Cl)cccc1Cl` [Example L-277], for which the inhibition at 1 pM worked out at 26%. In the case of `Cc1ccc(F)c(CNC(=O)c2cnc(N)c(OCc3c(Cl)cccc3Cl)c2)c1F` [Example L-278], the inhibition at 1 pM was 31%. With `Nc1ncc(C(=O)NCc2c(F)cccc2F)cc1OCc1c(Cl)cccc1Cl` [Example L-279], the inhibition at 1 pM was found to be 32%. In the case of `Nc1ncc(C(=O)N2CCN(CC(=O)Nc3ccccn3)CC2)cc1OCc1c(Cl)cccc1Cl` [Example L-280] it was 56%.

On to `Nc1ncc(C(=O)N2CCN(Cc3cccc4ccccc34)CC2)cc1OCc1c(Cl)cccc1Cl` [Example L-281], for which the inhibition at 1 pM was 26%. Turning to `CCS(=O)(=O)N1CCN(C(=O)c2cnc(N)c(OCc3c(Cl)cccc3Cl)c2)CC1` [Example L-282], the inhibition at 1 pM turned out to be 22%.

In the case of `Nc1ncc(C(=O)N2CCC(N3CCCCC3=O)CC2)cc1OCc1c(Cl)cccc1Cl` [Example L-283], the inhibition at 1 pM was determined as 26%.

For the compound `Nc1ncc(C(=O)N2CCC3(CCNC3=O)CC2)cc1OCc1c(Cl)cccc1Cl` [Example L-284], the inhibition at 1 pM stood at 27%.

With `Nc1ncc(C(=O)N2CCNC(=O)CC2)cc1OCc1c(Cl)cccc1Cl` [Example L-285], the inhibition at 1 pM was 31%.

As for `Nc1ncc(C(=O)N2CCCC(C(=O)N3CCCC3)C2)cc1OCc1c(Cl)cccc1Cl` [Example L-286], the inhibition at 1 pM amounted to 47%. For `Nc1ncc(C(=O)N2CCCC(C(=O)N3CCOCC3)C2)cc1OCc1c(Cl)cccc1Cl` [Example L-287], the inhibition at 1 pM came to 21%. The figure for `COCCNC(=O)C1CCCN(C(=O)c2cnc(N)c(OCc3c(Cl)cccc3Cl)c2)C1` [Example L-288] is 20%; for `CC(C)(O)c1ccc(CNC(=O)c2cnc(N)c(OCc3c(Cl)cccc3Cl)c2)cc1` [Example L-289] it is 24%; for `Nc1ncc(C(=O)N2CCCC2c2ccncc2)cc1OCc1c(Cl)cccc1Cl` [Example L-290] it is 19%. The figure for `Nc1ncc(C(=O)NCCc2nc3ccccc3s2)cc1OCc1c(Cl)cccc1Cl` [Example L-291] is 26%. Turning to `Nc1ncc(C(=O)NCC2=CSC3=NCCN23)cc1OCc1c(Cl)cccc1Cl` [Example L-292], the inhibition at 1 pM is 99%. As for `Nc1ncc(C(=O)NC2CCCNC2=O)cc1OCc1c(Cl)cccc1Cl` [Example L-293], the inhibition at 1 pM was 16%. In the case of `Cc1cc2cc(CNC(=O)c3cnc(N)c(OCc4c(Cl)cccc4Cl)c3)ccc2[nH]1` [Example L-294] it was 20%; in that of `CN(C)C(CNC(=O)c1cnc(N)c(OCc2c(Cl)cccc2Cl)c1)c1cccnc1` [Example L-295], 18%; in that of `CS(=O)(=O)C1CCN(C(=O)c2cnc(N)c(OCc3c(Cl)cccc3Cl)c2)C1` [Example L-296], 23%.

With `CN(CCS(C)(=O)=O)C(=O)c1cnc(N)c(OCc2c(Cl)cccc2Cl)c1` [Example L-297], the inhibition at 1 pM is 26%. In the case of `Nc1ncc(C(=O)NCCC2CCOCC2)cc1OCc1c(Cl)cccc1Cl` [Example L-298], the inhibition at 1 pM turned out to be 31%. As for `CS(=O)(=O)CCN1CCN(C(=O)c2cnc(N)c(OCc3c(Cl)cccc3Cl)c2)CC1` [Example L-299], the inhibition at 1 pM is 25%.

For `Nc1ncc(C(=O)NC(CO)c2cccnc2)cc1OCc1c(Cl)cccc1Cl` [Example L-300], the inhibition at 1 pM is 22%.

On to `Nc1ncc(C(=O)N2CCN(CC(=O)N3CCCCC3)CC2)cc1OCc1c(Cl)cccc1Cl` [Example L-301], for which the inhibition at 1 pM stood at 24%. As for `Nc1ncc(C(=O)N2CCC(Cc3ccc(F)cc3)CC2)cc1OCc1c(Cl)cccc1Cl` [Example L-302], the inhibition at 1 pM was 41%. For the compound `Nc1ncc(C(=O)NCc2ncccc2O)cc1OCc1c(Cl)cccc1Cl` [Example L-303], the inhibition at 1 pM was 24%.

As to `CCCCOc1ccc(CNC(=O)c2cnc(N)c(OCc3c(Cl)cccc3Cl)c2)cc1` [Example L-304], the inhibition at 1 pM amounted to 18%.

Take `Nc1ncc(C(=O)NCc2ccc(OC(F)F)cc2)cc1OCc1c(Cl)cccc1Cl` [Example L-305]: the inhibition at 1 pM amounted to 26%. Consider `COc1ccc(C(CCO)NC(=O)c2cnc(N)c(OCc3c(Cl)cccc3Cl)c2)cc1` [Example L-306], for which the inhibition at 1 pM amounted to 22%.
